Experimental data as given in PMC9376960, “Ruthenium(II)–Tris-pyrazolylmethane Complexes Inhibit Cancer Cell Growth by Disrupting Mitochondrial Calcium Homeostasis” (Journal of Medicinal Chemistry, 2022).
Marks after values point to notes of the source that are not given here.

Assays:
[1] = Stability and chloride/water exchange in D2O (NMR); format: physicochemical; details: for Aquo species % in D2O after 48h: 48 h at 37 °C; for residual complex % in D2O: sum of chloro and aquo complexes; for Aquo species % in D2O at t0: t0 = after 2 h stirring in D2O
Description: The same samples prepared at point (a) were used in this experiment, apart from complex 1 that was dissolved in DMSO-d6/D2O 4:1 v/v solution (0.7 mL; [Ru] = approx. […]) containing Me2SO2 as the standard.[115] After ^1H and ^31P{^1H} NMR analyses described above at point (a) (time = t0), samples were heated at 37 °C for 48 h. After cooling to room temperature, ^1H and ^31P NMR spectra were recorded. The percentage of starting complex + related aquo complex was calculated by the relative integral (C^βH signal in the ^1H spectrum) with respect to Me2SO2 (c = 3.3 × 10^–3 mol·L^–1; δ/ppm = 3.14 in D2O; δ/ppm = 2.95 in DMSO-d6/D2O 4:1 v/v), see Table 2 and S1.

[2] = system: HCT116 cells; assay: Confocal microscopy imaging of actin and tubulin; format: cell-based, human; details: 24 h at IC50
Description: HCT116 cells were seeded on coverslips precoated with 0.1% gelatin in six-well culture plates at a density of 1 × 10^5 cells/well. […] Following the treatment, the cells were washed with PBS, fixed with 4% p-formaldehyde, washed, permeabilized with 0.1% Triton X-100, and blocked. Samples for actin staining were blocked with 1.5% BSA for 1 h and then stained with Alexa Fluor 488-conjugated Phalloidin (Thermo Fisher Scientific, 1:50 dilution, 20 min). Samples for tubulin staining were blocked with 5% goat serum for 1 h and incubated with primary antibody (anti-α-tubulin, Abcam, 1:200 dilution, 1 h) and Alexa Fluor-conjugated secondary antibody (goat antirabbit, Abcam, 1:500 dilution, 1 h). Both groups of samples were mounted with ProLong Diamond Antifade Mountant with DAPI (Invitrogen). Cells were visualized on a confocal microscope Leica TCS SP8 SMD.

[3] = system: MMC-2; assay: MTT assay, NER-deficient cells; format: cell-based, Chinese hamster; details: 72 h
From the text: (§1) The human cervical carcinoma HeLa cells and human colorectal carcinoma cells HCT116 were kindly supplied by Professor B. Keppler, University of Vienna (Austria). Human rhabdomyosarcoma RD cells were purchased from the American Type Culture Collection (ATCC, Manassas, VA). Human breast cancer MCF-7 cells, human skin melanoma 518A2 cells, and human MRC5pd30 cells derived from normal lung tissue were purchased from the European Collection of Authenticated Cell Cultures (ECACC) (Salisbury, U.K.). Chinese hamster ovary CHO-K1 cell line (wild type) and its derivative MMC-2 carrying the ERCC3/XPB mutation (NER-deficient) cell line were kindly supplied by Dr. […], Cancer Research Institute, Slovak Academy of Sciences, Bratislava (Slovakia). In vitro antiproliferative activity of Ru complexes was determined by the MTT or, alternatively, SRB assay as already described,[84] after 72 h of incubation of cells with various concentrations of the Ru complex. The reported IC50 values are an average of three independent experiments, each consisting of three replicates per concentration.

[4] = system: CHO-K1; assay: MTT assay, wild-type cells; format: cell-based, Chinese hamster; details: 72 h
From the text: as §1

[5] = system: 518A2; assay: MTT antiproliferative assay; format: cell-based, human; details: 72 h, mean ± SD
Description: (§2) All of the cell lines were cultivated in DMEM medium (high glucose 4.5 g L^–1, PAA, Pasching, Austria) supplemented with gentamycin (50 μg mL^–1, Serva, Heidelberg, Germany) and 10% heat-inactivated fetal bovine serum (PAA). The medium for MRC5pd30 cells was further supplemented by 1% nonessential amino acids (Sigma-Aldrich, Prague, Czech Republic). All cells were cultured as adherent monolayers in a humidified incubator at 37 °C in a 5% CO2 atmosphere and subcultured twice a week with an appropriate plating density.
(§3) In vitro antiproliferative activity of Ru complexes was determined by the MTT or, alternatively, SRB assay as already described,[84] after 72 h of incubation of cells with various concentrations of the Ru complex. The reported IC50 values are an average of three independent experiments, each consisting of three replicates per concentration.

[6] = system: MCF-7; assay: MTT antiproliferative assay; format: cell-based, human; details: 72 h, mean ± SD
Description: as §2, §3

[7] = system: HeLa; assay: MTT antiproliferative assay; format: cell-based, human; details: 72 h, mean ± SD
Description: as §2, §3

[8] = system: HCT116; assay: MTT antiproliferative assay; format: cell-based, human; details: 72 h, mean ± SD
Description: as §2, §3

[9] = Solubility in water (D2O) by 1H NMR; format: physicochemical; details: for solubility: D2O, 21°C, sum of chloro and aquo complex after 2 h, 1H NMR, Me2SO2 standard
Description: A suspension of the selected ruthenium complex (3–5 mg) in a D2O solution (0.7 mL) containing Me2SO2 as the internal standard[115] (3.36 × 10^–3 M) was vigorously stirred at 21 °C for 2 h. The resulting saturated solution was filtered over celite, transferred into an NMR tube, and analyzed by ^1H NMR and ^31P NMR spectroscopy (delay time = 3 s; number of scans = 20). The concentration (solubility) was calculated by the relative integral (starting complex + aquo complex, C^βH signal in the ^1H spectrum) with respect to Me2SO2 (δ/ppm = 3.14). NMR data are given in the Supporting Information (Figures S36–S47).

[10] = system: cancer cell lines (MCF-7, HeLa, 518A2, HCT116, RD) vs noncancerous MRC-5pd30; assay: MTT panel: average IC50 of cancer cell lines and selectivity index; format: cell-based, human; details: for SI (selectivity index): IC50 for noncancerous MRC-5pd30 vs the average IC50 value of cancer cell lines; for IC50: average of IC50 values related to cancer cell lines
Description: as §3

| Substance | residual complex % in DMSO-d6/D2O ([1]; DMSO-d6/D2O (4:1 v/v) mixture, after 48 h at 37 °C) | IC50 [6] [µM] | IC50 [7] [µM] | IC50 [8] [µM] | solubility in water [9] | Aquo species % in D2O after 48h [1] [%] | residual complex % in D2O ([1]; after 48 h at 37 °C) [%] | Aquo species % in D2O at t0 [1] [%] | solubility [9] | effect on structure, shape, and layout of tubulin and actin networks [2] | IC50 [3] [µM] | IC50 [4] [µM] | IC50 [5] [µM] | SI (selectivity index) [10] | IC50 [10] [µM] |
| --- | --- | --- | --- | --- | --- | --- | --- | --- | --- | --- | --- | --- | --- | --- | --- |
| [RuCl(κ^3-tpm)(PPh3)2]Cl [compound 1] | 69 ^c % | 2.4 ± 0.6 | 4 ± 0.4 | 1.5 ± 0.1 | insoluble in water |  |  |  |  | did not significantly affect | 7.7 ± 0.2 | 6.3 ± 0.2 | 2.6 ± 0.4 | 2.3 | 2.5 ± 0.3 |
| [RuCl(κ^3-tpm)(PPh3)(CNCy)]Cl [compound 8] |  | 10 ± 2 | 15 ± 1 | 8 ± 2 |  | 90 | 92 | 33 | 1.1 10^–3 mol·L^–1 | did not significantly affect | 16 ± 3 | 16 ± 4 | 10 ± 2 | 2.0 | 9.9 ± 1.5 |
| [RuCl(κ^3-tpm)(PPh3){CNCH2P(O)(OEt2)2}]Cl [compound 9] |  | 43 ± 7 | 36 ± 2 | 35 ± 6 |  | 73 | 93 | 0 | 4.6 10^–3 mol·L^–1 |  |  |  | 38 ± 7 | 1.5 | 35.2 ± 5 |

More lines, main results first:

| residual complex % in DMSO-d6/D2O ([1]; DMSO-d6/D2O (4:1 v/v) mixture, after 48 h at 37 °C) | IC50 [6] [µM] | IC50 [7] [µM] | IC50 [8] [µM] | solubility in water [9] | Aquo species % in D2O after 48h [1] [%] | residual complex % in D2O ([1]; after 48 h at 37 °C) [%] | Aquo species % in D2O at t0 [1] [%] | solubility [9] | Substance | effect on structure, shape, and layout of tubulin and actin networks [2] | IC50 [3] [µM] | IC50 [4] [µM] | IC50 [5] [µM] | SI (selectivity index) [10] | IC50 [10] [µM] |
| --- | --- | --- | --- | --- | --- | --- | --- | --- | --- | --- | --- | --- | --- | --- | --- |
|  | 38 ± 8 | 91 ± 3 | 25 ± 1 |  | 93 | 100 | 75 | 3.4 10^–3 mol·L^–1 | [RuCl(κ^3-tpm)(PPh3){NCHN(Me)(CH)2}]Cl [compound 3] |  |  |  | 33 ± 5 | 2.0 | 42.8 ± 4.2 |
|  | 6 ± 1 | 10 ± 2 | 6.7 ± 0.4 |  | 83 | 100 | 57 | 3.1 10^–3 mol·L^–1 | [RuCl(κ^3-tpm)(PPh3){P(OMe)3}]Cl [compound 7] | did not significantly affect | 33 ± 2 | 25.6 ± 0.5 | 6.8 ± 0.8 | 3.4 | 7.1 ± 1 |
